Laboratory results published in patent US9994525B2, “H3 antagonists containing phenoxypiperidine core structure” (RICHTER GEDEON NYRT., priority 2013, dated 2018).
Structures can show the parent of a compound that is named as a salt.

Experiments:
[1] = cited from earlier work
[2] = biological target: hERG potassium channel (Homo sapiens (Human), UniProt Q12809); details: cited from earlier work
[3] = biological target: rat histamine H3 receptors (Rattus norvegicus (Rat), UniProt Q9QYN8); assay: rat histamine H3 receptor in vitro binding assay, N-α-[Methyl-3H]methylhistamine radioligand, rat cortex membrane; details: 1 nM radioligand, read-out: rH3 Ki
Description: The in vitro affinity of the compounds of the present invention for rat histamine H3 receptors can be determined according to the following procedure.
The rat histamine H3 receptor membrane was prepared as previously described by Witte et al. (British Journal of Pharmacol. 1-14, 2006). Male Sprague-Dawley rats were decapitated, their brains were removed and the cortex was isolated. The obtained tissues were homogenized in Tris-EDTA buffer (50 mM Tris-HCl, pH 7.4, 5 mM EDTA, 2 aprotinin, 1 mM benzamidine, 2 μg/ml leupeptin, 1 pepstatin) by a blender homogenizer (Ultra-Turrax). The homogenate was centrifuged at 40000 g for 20 min at 4° C. The membrane pellets were further purified by repeating the above homogenization and centrifugation steps. Final membrane preparations were obtained by rehomogenizing the pellets in 1:10 ratio in Tris-EDTA buffer (50 mM Tris-HCl, pH 7.4, 5 mM EDTA). The so obtained membrane preparation was divided into aliquots, flash frozen and stored at −80° C. until use. Protein content was determined by Lowry method using bovine serum albumin (BSA) as standard.
Receptor binding assays were performed in at least 5 concentrations, with two parallel samples in each concentrations, in at least two independent experiments using the binding buffer (50 mM Tris-HCl, pH 7.4, 5 mM MgCl2), rat H3 membrane (140 μg protein/tube), and N-α-[Methyl-^3H]methylhistamine dihydrochloride (1 nM) as radioligand. Non-specific binding was determined in the presence of 10 μM thioperamide. The samples were incubated in a final volume of 0.50 ml for 30 min at 25° C. Binding reactions were terminated by rapid filtration through UniFilter® GF/B™ fiber glass filters presoaked for at least 2 h in 0.5% polyethylene imine (PEI). The filterplates were washed nine times with 0.5 ml of ice-cold washing buffer (50 mM Tris-HCl, pH 7.4, 5 mM MgCl2, 10 μg/ml saponine). The filterplates were dried at 50° C. for 45 min and 40 μl of Microscint20 (Packard) scintillation cocktail was added to each well. Filters radioactivity was determined by TopCount (Packard) scintillation counter.
The ligand displacement by the compounds of the present invention was determined in at least two parallel experiments. The specific radioligand binding was defined as the difference between the total binding and the non-specific binding determined in the presence of excess of unlabelled ligand or test compounds used to specifically displace the radioligand. Results were expressed as a percent inhibition of specific binding obtained in the presence of test compounds. IC50 values were calculated from concentration-displacement curves by sigmoidal fitting using GraphPad Prism Software 4.0. Inhibition constants (Ki values) were calculated using the Cheng-Prusoff equation (Cheng Y C and Prusoff W H (1973) Biochem Pharmacol 22:3099-3108).
The affinity at rat H3 receptors of compounds of the present invention is illustrated by the following table.

[4] = system: extracellular histamine (HA) levels; assay: cerebral microdialysis, extracellular histamine (HA) levels in prefrontal cortex and hippocampus; assay type: in vivo, male Wistar rats; details: rats
From the text: (§1) Prefrontal cortex and hippocampus, the two brain regions play important roles in cognition processes. Both histamine (HA) and acetylcholine (ACh) are transmitters playing important roles in cognition. The hypofunction of the central cholinergic and histaminergic systems is considered one of the pathogenic causes of the cognitive deficits characterizing dementias. Alterations in the extracellular levels of HA and ACh were investigated after single and simultaneous treatment with histamine H3 antagonists and acetylcholine esterase inhibitors (AChEIs) in the prefrontal cortex and hippocampus of conscious, freely moving male Wistar rats (4-6 animals/group) by cerebral microdialysis technique.
(§2) Microdialysis probes were implanted in the medial prefrontal cortex (MPFC) and hippocampus (HC), and perfused with artificial AChEI-free cerebrospinal fluid (aCSF). Compounds examined in the present study were administered in 1% hydroxypropyl-methylcellulose (HPMC) and 5% polyoxiethelen(8)-sorbitane-monooleat (Tween 80) into the stomach via surgically implanted catheter.
(§3) Thirty-min samples were collected and the temporal changes in the extracellular ACh and histamine HA were followed by high-sensitivity and selectivity liquid chromatography coupled with mass spectrometry/mass spectrometry (LC-MS/MS) analytical method. […]

[5] = system: extracellular acetylcholine (ACh) levels; assay: cerebral microdialysis, extracellular acetylcholine (ACh) levels in prefrontal cortex and hippocampus; assay type: in vivo, male Wistar rats; details: rats
From the text: as §1, §2, §3

[6] = rat, in vivo
[7] = single treatment, 0.5 and 1 mg/kg into the stomach, MPFC and HC

rat histamine H3 receptors, sequence (Q9QYN8 whole entry): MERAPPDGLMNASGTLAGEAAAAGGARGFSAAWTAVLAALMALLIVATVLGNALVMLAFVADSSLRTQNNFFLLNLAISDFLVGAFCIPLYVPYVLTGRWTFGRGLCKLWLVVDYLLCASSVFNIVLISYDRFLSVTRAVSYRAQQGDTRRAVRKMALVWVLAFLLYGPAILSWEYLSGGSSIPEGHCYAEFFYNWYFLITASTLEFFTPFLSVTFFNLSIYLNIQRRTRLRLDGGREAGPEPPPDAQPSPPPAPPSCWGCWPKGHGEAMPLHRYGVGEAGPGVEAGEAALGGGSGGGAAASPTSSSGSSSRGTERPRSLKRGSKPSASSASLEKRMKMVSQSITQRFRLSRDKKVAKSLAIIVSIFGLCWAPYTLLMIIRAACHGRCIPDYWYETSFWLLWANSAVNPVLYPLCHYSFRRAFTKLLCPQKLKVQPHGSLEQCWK
hERG potassium channel, sequence (Q12809 whole entry): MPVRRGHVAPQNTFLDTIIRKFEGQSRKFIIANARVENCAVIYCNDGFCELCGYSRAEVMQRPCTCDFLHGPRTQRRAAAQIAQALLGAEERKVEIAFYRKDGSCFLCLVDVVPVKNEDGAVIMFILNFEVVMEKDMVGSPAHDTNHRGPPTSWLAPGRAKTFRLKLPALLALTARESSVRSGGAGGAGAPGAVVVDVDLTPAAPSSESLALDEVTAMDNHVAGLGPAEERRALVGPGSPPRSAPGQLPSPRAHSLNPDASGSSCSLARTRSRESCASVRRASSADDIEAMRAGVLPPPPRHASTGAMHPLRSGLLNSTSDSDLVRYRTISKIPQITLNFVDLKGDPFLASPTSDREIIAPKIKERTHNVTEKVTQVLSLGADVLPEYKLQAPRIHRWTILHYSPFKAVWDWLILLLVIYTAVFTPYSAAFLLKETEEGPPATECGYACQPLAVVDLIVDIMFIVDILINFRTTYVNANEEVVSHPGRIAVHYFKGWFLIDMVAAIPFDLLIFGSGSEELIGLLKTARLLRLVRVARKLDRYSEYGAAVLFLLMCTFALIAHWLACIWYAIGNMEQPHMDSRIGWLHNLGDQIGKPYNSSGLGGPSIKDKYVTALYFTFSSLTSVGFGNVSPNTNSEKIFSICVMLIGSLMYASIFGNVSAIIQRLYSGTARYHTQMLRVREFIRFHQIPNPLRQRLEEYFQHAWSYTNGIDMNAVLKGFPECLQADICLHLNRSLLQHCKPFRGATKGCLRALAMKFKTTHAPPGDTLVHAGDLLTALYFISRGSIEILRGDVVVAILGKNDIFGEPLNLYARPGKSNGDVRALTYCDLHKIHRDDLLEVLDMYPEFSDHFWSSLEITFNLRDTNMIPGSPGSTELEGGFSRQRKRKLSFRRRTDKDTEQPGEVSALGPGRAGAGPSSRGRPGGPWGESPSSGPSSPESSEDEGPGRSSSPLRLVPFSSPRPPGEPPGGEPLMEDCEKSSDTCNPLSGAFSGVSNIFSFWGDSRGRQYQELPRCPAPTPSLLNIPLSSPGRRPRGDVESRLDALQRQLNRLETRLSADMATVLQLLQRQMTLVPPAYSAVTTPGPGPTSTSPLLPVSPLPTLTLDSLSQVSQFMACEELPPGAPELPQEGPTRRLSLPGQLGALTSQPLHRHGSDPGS

C[C@@H]1CCCN1CCc1cc2cc(-c3ccc(C#N)cc3)ccc2o1 [ABT-239]
plasma protein binding [1]: High
cardiovascular side-effects, interaction with the hERG potassium channel [2]: interaction with the hERG potassium channel

CC(C)(C)OC(=O)N1CCC(Oc2ccc(OCCCN3CCCCC3)cc2)CC1 [Example 1, 4-{4-[3-(piperidin-1-yl)-propoxy]-phenoxy}-piperidine-1-carboxylic acid tert-butyl ester]
Ki [3]: 0.01 to 0.05 µM

c1cc(OC2CCNCC2)ccc1OCCCN1CCCCC1 [Example 2, 1-{3-[4-(piperidin-4-yl-oxy)-phenoxy]-propyl}-piperidine dihydrochloride salt]
Ki [3]: 0.01 to 0.05 µM

CC(=O)N1CCC(Oc2ccc(OCCCN3CCCCC3)cc2)CC1 [Example 3, 1-(4-{4-[3-(piperidin-1-yl)-propoxy]-phenoxy}-piperidin-1-yl)-ethanone hydrochloride salt]
Ki [3]: < 0.01 µM

O=C(C1CCC1)N1CCC(Oc2ccc(OCCCN3CCCCC3)cc2)CC1 [Example 4, Cyclobutyl-(4-{4-[3-(piperidin-1-yl)-propoxy]-phenoxy}-piperidin-1-yl)-methanone hydrochloride salt]
Ki [3]: 0.01 to 0.05 µM

CC1(C(=O)N2CCC(Oc3ccc(OCCCN4CCCCC4)cc3)CC2)CC1 [Example 5, (1-methyl-cyclopropyl)-(4-{4-[3-(piperidin-1-yl)-propoxy]-phenoxy}-piperidin-1-yl)-methanon hydrochloride salt]
Ki [3]: < 0.01 µM

CCOC(=O)N1CCC(Oc2ccc(OCCCN3CCCCC3)cc2)CC1 [Example 6, Ethyl-4-{4-[3-(piperidin-1-yl)-propoxy]-phenoxy}-piperidine-1-carboxylate hydrochloride salt]
Ki [3]: 0.01 to 0.05 µM

CCNC(=O)N1CCC(Oc2ccc(OCCCN3CCCCC3)cc2)CC1 [Example 7, N-ethyl-4-{4-[3-(piperidin-1-yl)-propoxy]-phenoxy}-piperidine-1-carboxamide]
Ki [3]: 0.01 to 0.05 µM

CCN(C)C(=O)N1CCC(Oc2ccc(OCCCN3CCCCC3)cc2)CC1 [Example 8, N-ethyl-N-methyl-4-{4-[3-(piperidin-1-yl)-propoxy]-phenoxy}-piperidine-1-carboxamide hydrochloride salt]
Ki [3]: 0.01 to 0.05 µM

C[C@@H]1CCCN1CCCOc1ccc(OC2CCN(C(=O)OC(C)(C)C)CC2)cc1 [Example 9, 4-(4-{3-[(2R)-2-methyl-pyrrolidin-1-yl]-propoxy}-phenoxy)-piperidine-1-carboxylic acid tert-butyl ester]
Ki [3]: 0.01 to 0.05 µM

C[C@@H]1CCCN1CCCOc1ccc(OC2CCNCC2)cc1 [Example 10, 4-(4-{3-[(2R)-2-methyl-pyrrolidin-1-yl]-propoxy}-phenoxy)-piperidine dihydrochloride salt]
Ki [3]: < 0.01 µM

CC(=O)N1CCC(Oc2ccc(OCCCN3CCC[C@H]3C)cc2)CC1 [Example 11, 1-[4-(4-{3-[(2R)-2-methyl-pyrrolidin-1-yl]-propoxy}-phenoxy)-piperidin-1-yl]-ethanone hydrochloride salt]
HA release evoked by Compound 11 ([4]; simultaneous administration with donepezil): not changed
extracellular HA level [4, 7]: rapid and expressed increase
extracellular ACh ([5]; simultaneous administration of 0.5 mg/kg donepezil and 0.5 or 1 mg/kg Compound 11, MPFC and HC): supra-additive increase
ACh levels [5, 7]: No significant changes
Ki [3]: 0.01 to 0.05 µM
plasma and brain levels [6]: did not change

C[C@@H]1CCCN1CCCOc1ccc(OC2CCN(C(=O)C3CCC3)CC2)cc1 [Example 12, cyclobutyl-[4-(4-{3-[(2R)-2-methylpyrrolidin-1-yl]-propoxy}-phenoxy)-piperidin-1-yl]-methanone hydrochloride salt]
Ki [3]: < 0.01 µM

C[C@@H]1CCCN1CCCOc1ccc(OC2CCN(C(=O)C3(C)CC3)CC2)cc1 [Example 13, (1-methyl-cyclopropyl)-[4-(4-{3-[(2R)-2-methyl-pyrrolidin-1-yl]-propoxy}-phenoxy)-piperidin-1-yl]-methanone hydrochloride salt]
Ki [3]: < 0.01 µM

CCOC(=O)N1CCC(Oc2ccc(OCCCN3CCC[C@H]3C)cc2)CC1 [Example 14, ethyl-4-(4-{3-[(2R)-2-methyl-pyrrolidin-1-yl]-propoxy}-phenoxy)-piperidine-1-carboxilate hydrochloride salt]
Ki [3]: < 0.01 µM

CCNC(=O)N1CCC(Oc2ccc(OCCCN3CCC[C@H]3C)cc2)CC1 [Example 15, N-ethyl-4-(4-{3-[(2R)-2-methyl-pyrrolidin-1-yl]-propoxy}-phenoxy)-piperidine-1-carboxamide]
Ki [3]: < 0.01 µM

CCN(C)C(=O)N1CCC(Oc2ccc(OCCCN3CCC[C@H]3C)cc2)CC1 [Example 16, N-ethyl-N-methyl-4-(4-{3-[(2R)-2-methyl-pyrrolidin-1-yl]-propoxy}-phenoxy)-piperidine-1-carboxamide hydrochloride salt]
Ki [3]: < 0.01 µM
